The text below walks through data of patent publication US20230019491A1, “PYRIMIDINE TBK/IKKe INHIBITOR COMPOUNDS AND USES THEREOF” (Merck Patent GmbH, priority 2017, published 2023).

Where a name gives a salt, the structure may show the parent alone.

One test addresses T1, IKKε (Homo sapiens, UniProt Q14164).
T1 sequence (Q14164 1-716): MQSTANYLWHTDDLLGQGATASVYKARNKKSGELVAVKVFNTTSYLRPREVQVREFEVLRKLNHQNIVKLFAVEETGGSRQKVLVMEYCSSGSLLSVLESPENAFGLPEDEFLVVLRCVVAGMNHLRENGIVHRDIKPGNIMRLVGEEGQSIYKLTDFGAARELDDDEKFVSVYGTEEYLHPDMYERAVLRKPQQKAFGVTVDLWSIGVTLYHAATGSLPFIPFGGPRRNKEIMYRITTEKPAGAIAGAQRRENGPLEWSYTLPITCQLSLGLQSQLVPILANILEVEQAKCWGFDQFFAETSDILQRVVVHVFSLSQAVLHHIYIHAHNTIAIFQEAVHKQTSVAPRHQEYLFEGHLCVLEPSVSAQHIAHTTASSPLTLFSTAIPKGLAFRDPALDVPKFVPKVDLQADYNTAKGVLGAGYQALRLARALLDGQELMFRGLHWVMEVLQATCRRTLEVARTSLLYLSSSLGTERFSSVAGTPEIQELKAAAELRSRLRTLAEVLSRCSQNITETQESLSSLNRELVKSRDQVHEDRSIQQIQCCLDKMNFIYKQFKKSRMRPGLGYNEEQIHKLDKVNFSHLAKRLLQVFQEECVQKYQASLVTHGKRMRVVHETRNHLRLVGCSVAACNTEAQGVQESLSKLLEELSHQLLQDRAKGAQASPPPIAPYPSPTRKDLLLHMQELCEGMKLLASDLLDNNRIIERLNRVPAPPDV
Kind of test: IKKε biochemical assay. The note with it: 10 point 1:4 dose response, 30 uM top concentration, 90 min at 25° C., LabChip EZ Reader II; read-out: IKKε_IC50. The procedure, abridged: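 Compounds in 1% DMSO final were incubated with IKKε enzyme and substrate at 25° C. for 90 min, then stopped. Substrate and product peaks were resolved by LabChip EZ Reader II mobility-shift read-out. Staurosporine at 10 uM final served as the full-inhibition control.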

Another test has as its target T2, TBK1 (Homo sapiens, UniProt Q9UHD2).
T2 sequence (Q9UHD2 1-729): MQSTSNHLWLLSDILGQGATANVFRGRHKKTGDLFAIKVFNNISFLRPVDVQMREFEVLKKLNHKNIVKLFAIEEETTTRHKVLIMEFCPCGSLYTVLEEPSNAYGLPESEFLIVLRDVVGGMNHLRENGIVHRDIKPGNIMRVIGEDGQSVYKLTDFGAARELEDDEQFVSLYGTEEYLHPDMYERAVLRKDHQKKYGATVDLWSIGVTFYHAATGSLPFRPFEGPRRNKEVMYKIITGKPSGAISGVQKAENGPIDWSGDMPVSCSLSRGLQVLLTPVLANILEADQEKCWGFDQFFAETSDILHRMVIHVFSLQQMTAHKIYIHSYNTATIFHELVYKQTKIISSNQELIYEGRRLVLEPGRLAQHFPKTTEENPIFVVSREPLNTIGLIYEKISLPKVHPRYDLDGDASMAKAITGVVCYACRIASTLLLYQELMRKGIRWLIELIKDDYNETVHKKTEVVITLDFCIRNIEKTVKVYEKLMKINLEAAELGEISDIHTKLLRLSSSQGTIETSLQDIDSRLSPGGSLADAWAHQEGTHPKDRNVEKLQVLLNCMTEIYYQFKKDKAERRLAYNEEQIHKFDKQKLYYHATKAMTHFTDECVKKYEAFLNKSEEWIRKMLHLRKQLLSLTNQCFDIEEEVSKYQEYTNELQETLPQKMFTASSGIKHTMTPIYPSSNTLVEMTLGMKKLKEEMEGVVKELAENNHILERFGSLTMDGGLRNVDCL
Kind of test: TBK biochemical assay. Particulars: 10 point 1:4 dose response, 30 uM top concentration, 90 min at 25° C., LabChip EZ Reader II; read-out: TBK1_IC50. The procedure, abridged:
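Substrate and product were separated and quantified by microfluidic mobility-shift read (LabChip). 10 uM staurosporine served as the full-inhibition control, and the reference compound was tested from 1 uM final.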

With `COc1nc(Nc2nccc(-c3ccc(OCC4CN(C(=O)[C@@H](C)O)C4)c(C#N)c3)n2)ccc1N1CCN(C2COC2)CC1` [Example 280, 2-([1-[(2R)-2-hydroxypropanoyl]azetidin-3-yl]methoxy)-5-[2-([6-methoxy-5-[4-(oxetan-3-yl)piperazin-1-yl]pyridin-2-yl]amino)pyrimidin-4-yl]benzonitrile], the IC50 on IKKε and at TBK1 was 100 to 1000 nM in each case.
In the case of `COCCN1CCN(c2ccc(Nc3nccc(-c4ccc(OC5CCOCC5)c(C#N)c4)n3)nc2OC)CC1` [Example 166], the IC50 at IKKε and at TBK1 was under 100 nM each time.
In the case of `C[C@@H](O)C(=O)N1CCC(Oc2ccc(-c3ccnc(Nc4cccc(C5CCN(C6COC6)CC5)c4)n3)cc2C#N)C(F)(F)C1` (stereo partly drawn) [Example 225, 2-[3,3-Difluoro-1-((R)-2-hydroxy-propionyl)-piperidin-4-yloxy]-5-{2-[3-(1-oxetan-3-yl-piperidin-4-yl)-phenylamino]-pyrimidin-4-yl}-benzonitrile], the IC50 on IKKε and on TBK1 was under 100 nM throughout.
Turning to `C[C@H](O)C(=O)N1CC[C@@H](Oc2ccc(-c3ccnc(Nc4ccc(N5CCN(C6COC6)CC5)cc4)n3)cc2C#N)C(F)(F)C1` [Example 140, 2-[[(4R)-3,3-difluoro-1-[(2S)-2-hydroxypropanoyl]piperidin-4-yl]oxy]-5-[2-([4-[4-(oxetan-3-yl)piperazin-1-yl]phenyl]amino)pyrimidin-4-yl]benzonitrile], the IC50 on IKKε and at TBK1 was under 100 nM in each case.
In the case of `Cc1cc(N2CCN(C3COC3)CC2)ccc1Nc1nccc(-c2ccc(OC3CCN(C(=O)[C@H](C)O)CC3(F)F)c(C#N)c2)n1` (stereo partly drawn) [Example 310, 2-([3,3-difluoro-1-[(2S)-2-hydroxypropanoyl]piperidin-4-yl]oxy)-5-[2-([2-methyl-4-[4-(oxetan-3-yl)piperazin-1-yl]phenyl]amino)pyrimidin-4-yl]benzonitrile], the IC50 on IKKε and on TBK1 was under 100 nM throughout.
With `COc1cc(Nc2nccc(-c3ccc(OC4CCN(C(=O)[C@H](C)O)CC4)c(C#N)c3)n2)cnc1N1CCN(C2COC2)CC1` [Example 320, 2-([1-[(2S)-2-hydroxypropanoyl]piperidin-4-yl]oxy)-5-[2-([5-methoxy-6-[4-(oxetan-3-yl)piperazin-1-yl]pyridin-3-yl]amino)pyrimidin-4-yl]benzonitrile], the IC50 on IKKε and at TBK1 was under 100 nM in each case.
Take `Cc1nc(C(=O)N2CCC(Oc3ccc(-c4ccnc(Nc5ccc(N6CCN(C7COC7)CC6)cc5)n4)cc3C#N)CC2)n[nH]1` [Example 273, 2-[[1-(5-methyl-1H-1,2,4-triazole-3-carbonyl)piperidin-4-yl]oxy]-5-[2-([4-[4-(oxetan-3-yl)piperazin-1-yl]phenyl]amino)pyrimidin-4-yl]benzonitrile]: the IC50 on IKKε and at TBK1 was under 100 nM throughout.
`COc1nc(Nc2nccc(-c3ccc(OC4CCN(C(=O)[C@H](C)OC)CC4(F)F)c(C#N)c3)n2)ccc1N1CCN(C2COC2)CC1` (stereo partly drawn) [Example 246, 2-[3,3-Difluoro-1-((S)-2-methoxy-propionyl)-piperidin-4-yloxy]-5-{2-[6-methoxy-5-(4-oxetan-3-yl-piperazin-1-yl)-pyridin-2-ylamino]-pyrimidin-4-yl}-benzonitrile]: the IC50 on IKKε and on TBK1 was under 100 nM each time.
Take `COc1cccc(Nc2nccc(-c3ccc(OC4CCN(C(=O)[C@@H](O)CO)CC4(F)F)c(C#N)c3)n2)n1` (stereo partly drawn) [Example 242, 2-[1-((S)-2,3-Dihydroxy-propionyl)-3,3-difluoro-piperidin-4-yloxy]-5-[2-(6-methoxy-pyridin-2-ylamino)-pyrimidin-4-yl]-benzonitrile]: the IC50 at IKKε and on TBK1 was under 100 nM in each case.
As for `COc1nc(Nc2ncc(C)c(-c3ccc(OC4CCN(C(=O)[C@@H](C)O)CC4(F)F)c(C#N)c3)n2)ccc1N1CCN(C2COC2)CC1` (stereo partly drawn) [Example 286, 2-([33-difluoro-1-[(2R)-2-hydroxypropanoyl]piperidin-4-yl]oxy)-5-[2-([6-methoxy-5-[4-(oxetan-3-yl)piperazin-1-yl]pyridin-2-yl]amino)-5-methylpyrimidin-4-yl]benzonitrile], the values for the IC50 on IKKε and at TBK1 were 100 to 1000 nM and under 100 nM, respectively.
The like results for `COc1nc(Nc2nccc(-c3cc(C#N)c(OC4CCN(C(=O)[C@H](C)O)CC4(F)F)cc3C)n2)ccc1N1CCN(C2COC2)CC1` (stereo partly drawn) [Example 307, 2-([3,3-difluoro-1-[(2S)-2-hydroxypropanoyl]piperidin-4-yl]oxy)-5-[2-([6-methoxy-5-[4-(oxetan-3-yl)piperazin-1-yl]pyridin-2-yl]amino)pyrimidin-4-yl]-4-methylbenzonitrile] were, in that order, under 100 nM and under 100 nM.
Consider `N#Cc1cc(-c2ccnc(Nc3ccccn3)n2)ccc1OC1CCN(C(=O)CO)CC1(F)F` (stereo not drawn) [Example 220, 2-[3,3-Difluoro-1-(2-hydroxy-acetyl)-piperidin-4-yloxy]-5-[2-(pyridin-2-ylamino)-pyrimidin-4-yl]-benzonitrile], for which the IC50 at IKKε and on TBK1 was under 100 nM each time.
As to `C[C@H](O)C(=O)N1CCC(Oc2ccc(-c3ccnc(Nc4ccc(C5CCN(C6COC6)CC5)cc4)n3)cc2C#N)C(F)(F)C1` (stereo partly drawn) [Example 212, 2-([3,3-difluoro-1-[(2S)-2-hydroxypropanoyl]piperidin-4-yl]oxy)-5-[2-([4-[1-(oxetan-3-yl)piperidin-4-yl]phenyl]amino)pyrimidin-4-yl]benzonitrile], the IC50 at IKKε and at TBK1 was under 100 nM each time.
For the compound `COc1nc(Nc2ncc(C)c(-c3ccc(OC4CCN(C(=O)[C@H](C)O)CC4(F)F)c(C#N)c3)n2)ccc1N1CCN(C2COC2)CC1` (stereo partly drawn) [Example 283, 2-([33-difluoro-1-[(2S)-2-hydroxypropanoyl]piperidin-4-yl]oxy)-5-[2-([6-methoxy-5-[4-(oxetan-3-yl)piperazin-1-yl]pyridin-2-yl]amino)-5-methylpyrimidin-4-yl]benzonitrile], the IC50 at IKKε and on TBK1 was under 100 nM each time.
For `COc1cc(C(=O)N(C)C)ncc1Nc1nccc(-c2ccc(NC3CCOCC3)c(C#N)c2)n1` [Example 61, 5-[(4-[3-cyano-4-[(oxan-4-yl)amino]phenyl]pyrimidin-2-yl)amino]-4-methoxy-N,N-dimethylpyridine-2-carboxamide], the IC50 at IKKε and on TBK1 was 100 to 1000 nM throughout.
On to `COc1nc(Nc2nccc(-c3ccc(OC4CCN(C(=O)c5n[nH]c(C)n5)CC4)c(C#N)c3)n2)ccc1N1CCN(C)CC1` [Example 94, 5-(2-[[6-methoxy-5-(4-methylpiperazin-1-yl)pyridin-2-yl]amino]pyrimidin-4-yl)-2-([1-[(5-methyl-1H-1,2,4-triazol-3-yl)carbonyl]piperidin-4-yl]oxy)benzonitrile], for which the IC50 on IKKε and at TBK1 was under 100 nM in each case.
Turning to `COc1nc(Nc2nccc(-c3ccc(OC4CCOCC4)c(C#N)c3)n2)ccc1C(=O)N(C)CCO` [Example 3, 6-([4-[3-cyano-4-(oxan-4-yloxy)phenyl]pyrimidin-2-yl]amino)-N-(2-hydroxyethyl)-2-methoxy-N-methylpyridine-3-carboxamide], the IC50 on IKKε and on TBK1 was under 100 nM throughout.
For `COc1cc(Nc2nccc(-c3cc(C#N)c(OC4CCOCC4)cn3)n2)ncc1N1CCN(C)CC1` [Example 55, 2-(2-[[4-methoxy-5-(4-methylpiperazin-1-yl)pyridin-2-yl]amino]pyrimidin-4-yl)-5-(oxan-4-yloxy)pyridine-4-carbonitrile hydrochloride], the IC50 at IKKε and at TBK1 was over 5000 nM in each case.
